Source: patent publication US7524847B2, “Fused 1,3-dihydro-imidazole ring compounds” (Eisai R&D Management Co., Ltd., priority 2002, dated 2009)

Legend:
[1] = biological target: T1, DPP-IV obtained from pig kidney (Sus scrofa, UniProt P22411); test: Measurement of DPPIV-inhibiting activity (in vitro experiment); type: biochemical; conditions: DPP-IV from pig kidney 10 mU/mL, substrate Gly-Pro-p-nitroanilide 0.33 mM, 20 min preincubation, 20 min reaction, absorbance 405 nm
T1 construct: DPP-IV obtained from pig kidney; from tissue; host or cells: pig kidney
T1 sequence (P22411 whole entry): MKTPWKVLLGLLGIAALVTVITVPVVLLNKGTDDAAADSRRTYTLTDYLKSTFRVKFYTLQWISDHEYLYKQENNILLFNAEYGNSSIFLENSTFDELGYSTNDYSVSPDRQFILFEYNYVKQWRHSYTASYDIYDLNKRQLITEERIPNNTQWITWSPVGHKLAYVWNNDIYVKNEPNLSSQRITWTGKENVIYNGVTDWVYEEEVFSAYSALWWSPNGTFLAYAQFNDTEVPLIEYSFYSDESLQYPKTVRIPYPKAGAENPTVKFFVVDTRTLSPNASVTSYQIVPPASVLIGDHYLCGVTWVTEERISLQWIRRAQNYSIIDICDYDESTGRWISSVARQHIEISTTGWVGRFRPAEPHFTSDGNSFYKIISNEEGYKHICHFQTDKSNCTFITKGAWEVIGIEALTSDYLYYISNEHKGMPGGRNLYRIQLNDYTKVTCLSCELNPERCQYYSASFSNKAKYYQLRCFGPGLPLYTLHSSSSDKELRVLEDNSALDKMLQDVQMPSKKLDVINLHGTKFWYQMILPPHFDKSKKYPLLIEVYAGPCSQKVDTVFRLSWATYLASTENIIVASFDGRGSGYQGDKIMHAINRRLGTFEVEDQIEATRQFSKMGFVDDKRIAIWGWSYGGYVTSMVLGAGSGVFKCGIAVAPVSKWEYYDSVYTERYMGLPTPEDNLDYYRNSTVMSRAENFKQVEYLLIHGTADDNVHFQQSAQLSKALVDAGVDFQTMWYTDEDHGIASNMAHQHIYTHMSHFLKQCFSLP
Experimental: DPP-IV obtained from pig kidney was dissolved in a reaction buffer (50 mM Tris-HCl pH7.4, 0.1% BSA) at 10 mU/mL, and 110 μL of this was used. 15 μL of the drug obtained from the aforementioned Examples was added, and this was incubated at room temperature for 20 minutes, and then 25 μL of a 2 mM solution of Gly-Pro-p-nitroanilide (final concentration 0.33 mM) was added to start the enzymatic reaction. The reaction time was 20 minutes, and 1 N phosphoric acid solution (25 μL) was added to stop the reaction.

[2] = tested on: normal mice (male C57BL/6N); test: Effects on glucose tolerance in normal mice (in vivo experiment); conditions: 1 mg/kg oral, 30 min before oral glucose 2 g/kg; blood glucose AUC0-120; 0.5% MC group = 100%, NVP DPP728 (10 mg/kg) group = 0%; lower = better
Experimental: Animals: Male C57BL/6N mice (purchased from Japan Charles River) The test compounds were suspended in a 0.5% methylcellulose (MC) solution at the doses indicated below in Table 2. These test compounds and the NVP DPP728 (U.S. Pat. No. 6,011,155) suspension, or the 0.5% MC solution (the solvent control group), were administered orally at a dose of 10 mL/kg. 30 minutes later, a glucose solution was orally administered at a dose of 10 mL/kg. Glucose was orally administered at a dose of 2 g/kg. The tail vain of unanesthetized mice was cut with a razor blade to cause a small amount of bleeding immediately before administering the test substances or NVP DPP728, and immediately before, as well as 30, 60, and 120 minutes after, administration of the glucose solution. 10 μL of blood was collected, and this was mixed immediately with 0.6 M perchloric acid (140 μL). Glucose present in the supernatant obtained by centrifugation (1500 g, 10 minutes, 4° C., refrigerated centrifuge GS-6KR, Beckman) was measured using Glucose CII Test Wako (Wako Pure Chemicals). Results: In each of the groups to which 0.5% MC solution, NVP DPP728, and the test compounds were administered, the area under the curve of blood glucose vs. time was calculated over 0 to 120 minutes from the time of glucose administration (AUC0-120). Defining the AUC0-120 for the 0.5% MC solution-administered group as 100%, and the AUC0-120 for the NVP DPP728 (10 mg/kg)-administered group as 0%, the degree of improvement in glucose tolerance due to the test compound was calculated by the following equation: Degree of improvement in glucose tolerance (%)=(AUC0-120 of the test compound−AUC0-120 of the NVP DPP728 (10 mg/kg)-administered group)/(AUC0-120 of the 0.5% MC solution-administered group−AUC0-120 of the NVP DPP728 (10 mg/kg)-administered group)×100 The lower the % value, the better the degree of improvement in glucose tolerance.

Row | SMILES | IC50 [1] | Degree of improvement in glucose tolerance (%) [2]
1 | CC#CCn1c(=O)n(C)c2nc(Oc3ccccc3C#N)nc(N3CCNCC3)c21.O=C(O)C(F)(F)F [Example 13, 2-[7-(2-Butynyl)-9-methyl-8-oxo-6-(piperazin-1-yl)-8,9-dihydro-7H-purin-2-yloxy]benzonitrile trifluoroacetic acid salt] | 0.0247 µM | 33.5%
2 | CC#CCn1c(=O)n(C)c2nc(OCC)nc(N3CCNCC3)c21.O=C(O)C(F)(F)F [Example 10, 7-(2-Butynyl)-2-ethoxy-9-methyl-6-(piperazin-1-yl)-7,9-dihydropurin-8-one trifluoroacetic acid salt] | 0.251 µM | 17.3%
3 | C=CCOc1nc(N2CCNCC2)c2c(n1)n(C)c(=O)n2CC#CC.O=C(O)C(F)(F)F [Example 15, 2-Allyloxy-7-(2-butynyl)-9-methyl-6-(piperazin-1-yl)-7,9-dihydropurin-8-one trifluoroacetic acid salt] | 0.319 µM | 46%
4 | CC#CCn1c(=O)n(-c2ccccc2)c2nc(OC)nc(N3CCNCC3)c21.O=C(O)C(F)(F)F [Example 54, 7-(2-Butynyl)-2-methoxy-9-phenyl-6-(piperazin-1-yl)-7,9-dihydropurin-8-one trifluoroacetic acid salt] | 0.0888 µM | 24.4%
5 | C=CCn1c(=O)n(CC#CC)c2c(N3CCNCC3)nc(OC)nc21.O=C(O)C(F)(F)F [Example 47, 9-Allyl-7-(2-butynyl)-2-methoxy-6-(piperazin-1-yl)-7,9-dihydropurin-8-one trifluoroacetic acid salt] | 0.167 µM | 11.6%
6 | CC#CCn1c(=O)n(-c2cccnc2)c2ncnc(N3CCNCC3)c21.O=C(O)C(F)(F)F [Example 61, 7-(2-Butynyl)-6-(piperazin-1-yl)-9-(pyridin-3-yl)-7,9-dihydropurin-8-one trifluoroacetic acid salt] | 0.0619 µM | 9.4%

The remaining compounds from weak to strong by IC50 [1], led by results:

Row | IC50 [1] | SMILES | Degree of improvement in glucose tolerance (%) [2]
7 | 0.24 µM | CC#CCn1c(=O)n(C)c2nc(OC)nc(N3CCNCC3)c21.O=C(O)C(F)(F)F [Example 1, 7-(2-Butynyl)-2-methoxy-9-methyl-6-(piperazin-1-yl)-7,9-dihydropurin-8-one trifluoroacetic acid salt] | 19.8%
8 | 0.199 µM | CC#CCn1c(=O)n(C)c2nc(OC(C)C)nc(N3CCNCC3)c21.O=C(O)C(F)(F)F [Example 7, 7-(2-Butynyl)-2-isopropoxy-9-methyl-6-(piperazin-1-yl)-7,9-dihydropurin-8-one trifluoroacetic acid salt] | 19.8%
9 | 0.175 µM | CC#CCn1c(=O)n(CCC)c2nc(OC)nc(N3CCNCC3)c21.O=C(O)C(F)(F)F [Example 52, 7-(2-Butynyl)-2-methoxy-6-(piperazin-1-yl)-9-propyl-7,9-dihydropurin-8-one trifluoroacetic acid salt] | 29.7%
10 | 0.13 µM | CC#CCn1c(=O)n(CC2CC2)c2nc(OC)nc(N3CCNCC3)c21.O=C(O)C(F)(F)F [Example 51, 7-(2-Butynyl)-9-cyclopropylmethyl-2-methoxy-6-(piperazin-1-yl)-7,9-dihydropurin-8-one trifluoroacetic acid salt] | 59.3%
11 | 0.0964 µM | CC#CCn1c(=O)n(-c2ccoc2)c2nc(OC)nc(N3CCNCC3)c21.O=C(O)C(F)(F)F [Example 56, 7-(2-Butynyl)-9-(furan-3-yl)-2-methoxy-6-(piperazin-1-yl)-7,9-dihydropurin-8-one trifluoroacetic acid salt] | 11.3%
12 | 0.0716 µM | CC#CCn1c(=O)n(CC#CC)c2c(N3CCNCC3)nc(OC)nc21.O=C(O)C(F)(F)F [Example 48, 7,9-Di-(2-butynyl)-2-methoxy-6-(piperazin-1-yl)-7,9-dihydropurin-8-one trifluoroacetic acid salt] | 37.4%
13 | 0.0325 µM | CC#CCn1c(=O)n(-c2cnc(OC)nc2)c2ncnc(N3CCNCC3)c21.O=C(O)C(F)(F)F [Example 64, 7-(2-Butynyl)-9-(2-methoxy-pyrimidin-5-yl)-6-(piperazin-1-yl)-7,9-dihydropurin-8-one trifluoroacetic acid salt] | −11.4%
14 | 0.0167 µM | CC#CCn1c(=O)n(-c2ccnc(Cl)c2)c2ncnc(N3CCNCC3)c21.O=C(O)C(F)(F)F [Example 65, 7-(2-Butynyl)-9-(2-chloro-pyridin-4-yl)-6-(piperazin-1-yl)-7,9-dihydropurin-8-one trifluoroacetic acid salt] | 9.5%
